From PubChem BioAssay AID179 (DTP/NCI, 2004)
Calls of active or inactive are those of the source.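 Rule for the calls: active = compounds giving half or more protection of infected cells from virus-caused growth loss, again on retest; inactive = the rest.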

System: CEM cells HIV-1 protection, formazan growth assay
Assay: NCI AIDS Antiviral Assay
Conditions: for IC50: measured here: growth of uninfected CEM cells
In short: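 Protection of CEM cells against HIV-1 measured as cell growth via soluble formazan read-out, with five concentrations tested on both infected and uninfected cells; failure to protect may reflect toxicity.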

SMILES | EC50 [µM] | IC50 [µM] | outcome
CN(C)CCN(C)P12(Oc3ccccc3O1)Oc1c(Cl)c(Cl)c(Cl)c(Cl)c1O2 | > 43.7 | 24.5 | 
O=C(Nc1c(C(=O)NC2CCCCC2)[nH]c(=O)[nH]c1=O)c1ccc(Cl)cc1 |  |  | inactive
CC1=N/C(=C\c2cccc(C#N)c2)C(=O)O1 | > 170 | 97.7 | 
O=[N+]([O-])c1cccnc1-n1cnc2ccccc21 | > 200 | > 100 | 
COc1ccc(CCc2cc(OC)c(O)c(OC)c2)cc1 | > 200 | 10.5 | 
COP(=O)(OC)C(N)CCSC (stereo unspecified) | > 200 | > 200 | 
O=C(O)CCCc1ccc(N(CCCl)OCCCl)cc1 | > 200 | 21.9 | 
c1ccc(N=C(N2CCCC2)N(CCN2CCCC2)c2ccccc2)cc1 | > 200 | 9.33 | 
COC(=O)C(=O)C(CC(=O)Nc1cccc(C(F)(F)F)c1)C(=O)OC (stereo unspecified) | > 14.5 | > 14.5 | 
N#Cc1c(O)c2ccccc2[nH]c1=O | > 200 | > 200 | 
CC(=[OH+])[CH-]C(C)=NCC(C)N=C(C)CC(C)=[OH+].[Cu+2] (stereo unspecified) | > 200 | 20.9 | 
S=C1CC(=S)NC(=S)N1 | > 513 | > 513 | 
Cc1ccc(S(=O)(=O)NCCN(CCNS(=O)(=O)c2ccc(C)cc2)S(=O)(=O)c2ccc(C)cc2)cc1 | > 200 | > 200 | 
CC(C)(C)OC(=O)CC(NC(=O)OCc1ccccc1)NC(=O)OC(C)(C)C (stereo unspecified) | > 200 | > 200 | 
COc1cccc(C2CO2)c1 (stereo unspecified) | > 200 | 151 | 
CN(C)c1nc(N)c(C#N)c(C#N)c1C#N | > 200 | 8.71 | 
CC(=O)NC(CCC(=O)c1ccc(C)cc1)(C(=O)O)C(=O)O | > 200 | > 200 | 
CCOC(=O)CCC(NC(=O)c1ccc(Nc2cnc3ccc(C(F)(F)F)cc3n2)cc1)C(=O)OCC (stereo unspecified) | > 200 | 18.6 | 
C=C=C(C)C(C(C)C)N1CCCC1 (stereo unspecified) | > 1230 | 138 | 
COCc1cc(=O)oc2c3c(c4c(c12)OC(C)(C)C=C4)O[C@H](C)[C@@H](C)[C@H]3O | 174 | 182 | 
CN(C)CCN1C(=O)C2C3CCC(C)(O3)C2C1=O (stereo unspecified) | > 200 | > 200 | 
Cc1cccc(-n2c(N)c(-c3nc4ccccc4[nH]3)sc2=S)c1 | > 5.89 | > 5.89 | 
Clc1ccccc1CN1COc2c(ccc3cccnc23)C1 | > 30.9 | 1.58 | 

SMILES | EC50 [µM] | IC50 [µM] | outcome
C/C=C/[C@H](O[Si](C)(C)C(C)(C)C)[C@@H](O)/C=C/C(=O)OCC | > 200 | 28.8 | 
CCOC(=O)[C@@]12C(C)=CC(=O)O[C@]1(C)C1C(=O)NC(=O)C12 (stereo partly specified) | > 851 | > 851 | 
C/C=C(/C)C(=O)O[C@H]1C[C@@H]2[C@@H](O)c3occ(C)c3C[C@]2(C)[C@@H](C)C1 | > 200 | 10.5 | 
C=C(C)COC(=O)C1C2CC(C3OC23)C1C(=O)OCC(=C)C (stereo unspecified) | > 200 | 112 | 
Nc1ccc(C(=O)Oc2ccccc2)c(O)c1 | > 200 | > 200 | 
COc1c(OC)c(N)c2cc(C)c(=O)c(C)cc2c1N | > 240 | 56.2 | 
C/C1=C/C2OC(=O)C3(C)C2C(CC2(C)OC1=CC2=O)OC3(O)C(C)C (stereo unspecified) | > 102 | 10.5 | 
O=C(CC(CC(=O)Oc1c(Br)cc(Br)cc1C(=O)O)C(=O)Oc1c(Br)cc(Br)cc1C(=O)O)Oc1c(Br)cc(Br)cc1C(=O)O | > 245 | 85.1 | 
O=C(Nc1cccc(O)c1)C(=O)C(C(=O)c1ccccc1F)C1OC(=O)c2ccccc21 (stereo unspecified) | > 302 | 24 | 
COc1ccc(N=Nc2c(-c3ccccc3)nn(C(=O)CC(=O)Nc3cccc(Cl)c3)c2-c2ccccc2)cc1 | > 18.2 | > 18.2 | 
CN(NC(=O)c1ccco1)C1=NCCN1 | > 200 | > 200 | 
COc1ccc2c(c1)N=C(N)n1c(nc3ccccc31)S2 | > 200 | 6.61 | 
O=c1[nH]c2ccc(CC(=S)N3CCCCC3)cc2s1 | > 200 | 148 | 
O=C(O)c1cc2ccc(O)c(O)c2cn1 | > 56.2 | 2.04 | 
CNC(=O)c1n[nH]n(C2CCCCC2)c1=S |  |  | inactive
CC(=O)Oc1ccc2cc(Oc3cc(Cl)c(Cl)cc3Cl)c(=O)oc2c1 | > 200 | 93.3 | 
Cc1nc(N)sc1C(=O)/C=C/c1ccc(/C=C/C(=O)c2sc(NC(=O)CCCCCCCCC(=O)Nc3nc(C)c(C(=O)/C=C/c4ccc(/C=C/C(=O)c5sc(N)nc5C)cc4)s3)nc2C)cc1 | > 251 | 162 | 
O=C(O)c1nc(-c2ccccc2)ncc1-c1nnnn1-c1ccccc1 | > 200 | > 200 | 
COc1ccc(C[C@@H]2NC[C@@H](O)[C@@H]2OC(C)=O)cc1 | > 4.17 | 0.017 | 
CC1=C(C(=O)N[C@@H](CC(C)C)C(=O)O)N2C(=O)[C@@H](NC(=O)[C@@H](N)Cc3ccccc3)[C@H]2SC1 | > 200 | 85.1 | 
COc1ccc2cc(C(=O)c3ccccc3C(=O)O)ccc2c1 |  |  | inactive
O=C(Nc1nc(C23CC4CC(CC(C4)C2)C3)cs1)c1cc2cc(Br)cc(Br)c2oc1=O | > 200 | 135 | 
O=C(O)Cn1cnc2c(=O)[nH]c(Nc3ccccc3)nc21 | > 200 | > 200 | 

SMILES | EC50 [µM] | IC50 [µM] | outcome
CCCCCOC(=O)c1ccc(NC(=O)CN(CC)CC)cc1 | > 200 | 55 | 
BrC(/C=N/Nc1nnc(-c2ccccc2)c(-c2ccccc2)n1)C(Br)c1ccccc1 (stereo unspecified) | > 13.5 | > 13.5 | 
CC(C)(C)C1CCC2(CC1)CC(=O)N(N1CCCCCC1)C(=O)C2 | > 200 | 55 | 
Cc1oc2c(c1C)S(=O)(=O)C(C#N)=CN2 | > 200 | > 200 | 
CC1(C)SC2C(NC(=O)C(N)c3ccccc3)C(=O)N2C1C(=O)O (stereo unspecified) | > 200 | > 200 | 
COc1c(Cl)cc(S(=O)O)cc1Cl |  |  | inactive
CC(C)/C(Cl)=N\OC(=O)NNc1ccccc1 | > 20 | 5.75 | 
Cc1ccc(SSc2ccc(C)cc2C(=O)O)c(C(=O)O)c1 | > 200 | > 200 | 
COc1ccc(/C=C2\N=C(N3CCCCC3)NC2=O)cc1 | > 200 | > 100 | 
O=[As](O)(O)c1ccc(Nc2nc(Cl)nc(Cl)n2)cc1 | > 200 | > 200 | 
Cc1cc(C)nc(NS(=O)(=O)c2ccc(NC(=O)c3cccc4c(Nc5ccc(S(=O)(=O)Nc6cc(C)on6)cc5)c5ccccc5nc34)cc2)n1 | > 35.5 | > 35.5 | 
COc1cc2c(cc1OC)C1CC(=O)C3=C(CCCC3)N1CC2 (stereo unspecified) | > 200 | 91.2 | 
O=C(O)c1nc2ccccc2nc1Nc1ccc(Cl)c(Cl)c1 | > 200 | 11.5 | 
O=c1/c(=C/c2ccc3c(c2)OCO3)sc2nnc(Cc3ccccc3)n12 | > 20 | > 20 | 
CC(=O)N1CCOC12N=NC(C)(C)O2 (stereo unspecified) | > 200 | > 200 | 
Cc1noc2cccc(OCc3ccccc3)c12 | > 30.2 | > 30.2 | 
c1csc(-c2ccc(-c3ccc(-c4cccs4)s3)s2)c1 | > 200 | > 200 | 
Cc1cc(N(CCC#N)CCC#N)ccc1/C=N/NC(=O)c1ccccc1 | > 200 | 7.41 | 
O=C1c2ccccc2C(=O)c2c(S)cccc21 | 148 | > 200 | 
CCn1c(SCC(=O)NNC(=S)Nc2ccc(F)cc2)nc2ccccc2c1=O | > 200 | 129 | 
O=C(/C=C\c1ccccc1)c1ccc(-c2ccc([N+](=O)[O-])cc2)cc1 |  |  | inactive
CCN(CC)C(=S)N/N=C(/C)c1cccc(/C(C)=N\NC(=S)N(CC)CC)n1 | > 200 | 6.31 | 
COC(=O)c1ccccc1CC1Cc2cc3c(cc2C1=O)CCC3 (stereo unspecified) | > 200 | 7.59 | 

SMILES | EC50 [µM] | IC50 [µM] | outcome
c1ccc(-c2nc3nc4ccccc4nc3nc2-c2ccccn2)nc1 | > 53.7 | 10.7 | 
CCC(O)C1Cc2c(C)cc3c(c2O1)C(=O)c1ccccc1C3=O (stereo unspecified) |  |  | inactive
O=c1n(CC2CO2)c2ccccc2n1CC1CS1 (stereo unspecified) | > 692 | 12.9 | 
COc1cc2ccc3c4cc(OC)c(OC)cc4c[n+](C)c3c2cc1O |  |  | inactive
CC1(Nc2ccccc2)OC(=O)c2ccccc21 (stereo unspecified) | > 200 | > 200 | 
Cc1cn(C2CC(Sc3cn[nH]n3)C(CO)O2)c(=O)[nH]c1=O (stereo unspecified) | > 380 | 75.9 | 
COC(=O)C(C)(C)C(OP(=O)(OC)OC)=C(C)C | > 891 | > 891 | 
CN(c1cn(C2CC[C@@H](CO)O2)c(=O)[nH]c1=O)C1CCCCC1 (stereo partly specified) | > 200 | > 200 | 
O=C(O)c1cc(S(=O)(=O)N=NC=C2c3ccccc3N(O)c3ccccc32)ccc1O |  |  | inactive
CS(=O)(=O)N(CCC#N)c1ccc(/C=N/NC(=O)CC(=O)Nc2cccc(Cl)c2)cc1 | > 204 | > 204 | 
COc1ccc(N(CN2C(=O)CCC2OC)C(C)=O)cc1 (stereo unspecified) |  |  | inactive
Cc1cc(O)c2c(c1O)C(=O)C13C(=C2O)C(=O)C2C(O)C1C1C(O)C3C(=O)C3=C(O)c4c(O)cc(C)c(O)c4C(=O)C321 (stereo unspecified) | > 45.7 | 0.0977 | 
Cc1sc2nc3n(c(=O)c2c1C)N=CN(c1ccc(F)cc1)C3 | 30.9 | > 100 | 
CNC(=O)Oc1ccc(Cl)cc1SSc1cc(Cl)ccc1OC(=O)NC | > 200 | 8.32 | 
Cc1occc1C(=S)Nc1ccc(Cl)c(/C=N/OC2CCCC2)c1 | 0.174 | 14.5 | 
Cc1ccc(S(=O)(=O)OCCOC(Cc2ccccc2)n2cc(C)c(=O)[nH]c2=O)cc1 (stereo unspecified) | > 200 | > 200 | 
Cc1cc(=O)oc2cc3c(cc12)CCCN3 | > 33.9 | > 33.9 | 
CN1CCN=C1c1ccc(NC(=O)c2ccc(C(=O)Nc3ccc(C4=NCCN4C)cc3)cc2)cc1 | > 200 | 74.1 | 
Clc1ccc(CN2COc3c(cc(Cl)c4cccnc34)C2)cc1 | > 64.6 | 1.26 | 
N#Cc1ccc(C(=O)/C=C/c2ccc(O)c(O)c2)cc1 | > 200 | 10.2 | 
CCOC(=O)C1=C(NC)OC/C1=N\NC(=O)c1ccccc1O | > 93.3 | 14.1 | 
